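Grown in 96-well plates, cells were treated for 48 hours with each compound at five concentrations. Insufficient inhibition: endpoint recorded as highest concentration tested. Here, GI50 denotes the concentration required for 50% inhibition of growth.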 Active and inactive are the calls of the source. Rule as the data show it: active = GI50 up to about 1.1 µM and inactive = higher.
Assays:
Experiment in all cases: DTP human tumour cell line panel, 48 h
K562 = system: K562
A498 = system: A498
OVCAR-5 = system: OVCAR-5
SK-OV-3 = system: SK-OV-3
NCI-H522 = system: NCI-H522
IGROV-1 = system: IGROV-1
RPMI-8226 = system: RPMI-8226
SF-268 = system: SF-268
KM12 = system: KM12
SK-MEL-2 = system: SK-MEL-2
LOX IMVI = system: LOX IMVI
SN12C = system: SN12C
HOP-62 = system: HOP-62
NCI-H460 = system: NCI-H460
UO-31 = system: UO-31
MCF7 = system: MCF7
HT-29 = system: HT-29
SNB-19 = system: SNB-19
NCI-H226 = system: NCI-H226
NCI/ADR-RES = system: NCI/ADR-RES

Measured: GI50

CC(C)C1=C(O)C(=O)C2=C(C1=O)C(O)CC1C(C)(C)CCCC21C (stereo not drawn)
inactive: K562 6.56 µM | A498 14.3 µM | OVCAR-5 20.4 µM | SK-OV-3 15 µM | NCI-H522 21.6 µM | IGROV-1 15.8 µM | RPMI-8226 4.65 µM | SF-268 6 µM | KM12 5.45 µM | SK-MEL-2 2.84 µM | LOX IMVI 25.1 µM | SN12C 7.26 µM | HOP-62 7.35 µM | NCI-H460 2.88 µM | UO-31 5.09 µM | MCF7 5.87 µM | HT-29 22.1 µM | SNB-19 5.38 µM

Cc1ccc(C(=O)/C=C/c2ccccc2O)c(C)c1
inactive: K562 > 100 µM | A498 > 100 µM | OVCAR-5 > 100 µM | SK-OV-3 > 100 µM | NCI-H522 > 100 µM | IGROV-1 > 100 µM | RPMI-8226 18.7 µM | SF-268 93.3 µM | KM12 > 100 µM | SK-MEL-2 > 100 µM | LOX IMVI > 100 µM | NCI-H226 > 100 µM | SN12C > 100 µM | HOP-62 > 100 µM | NCI-H460 > 100 µM | UO-31 > 100 µM | SNB-19 > 100 µM
active: HT-29 0.8 µM

COc1ccccc1/C=N/N=C(\N)NO
inactive: K562 3.65 µM | A498 33.5 µM | OVCAR-5 4.58 µM | SK-OV-3 71.9 µM | NCI-H522 18.7 µM | IGROV-1 96.4 µM | RPMI-8226 29.2 µM | SF-268 20.5 µM | KM12 12.7 µM | SK-MEL-2 23.8 µM | LOX IMVI 4.47 µM | NCI-H226 28.4 µM | SN12C 30.2 µM | HOP-62 6 µM | NCI-H460 4.14 µM | UO-31 7.18 µM | HT-29 18.6 µM | SNB-19 > 100 µM

O=S1(=O)OCCOS(=O)(=O)C1(F)Cc1ccccc1
inactive: K562 > 100 µM | A498 > 100 µM | OVCAR-5 > 100 µM | SK-OV-3 > 100 µM | NCI-H522 > 100 µM | IGROV-1 > 100 µM | NCI/ADR-RES > 100 µM | RPMI-8226 > 100 µM | SF-268 > 100 µM | SK-MEL-2 > 100 µM | LOX IMVI > 100 µM | NCI-H226 > 100 µM | SN12C > 100 µM | HOP-62 > 100 µM | NCI-H460 > 100 µM | UO-31 > 100 µM | HT-29 > 100 µM | SNB-19 > 100 µM

Clc1ccccc1C(SCc1ccccc1)SCc1ccccc1
inactive: K562 > 100 µM | OVCAR-5 > 100 µM | NCI-H522 > 100 µM | IGROV-1 > 100 µM | NCI/ADR-RES > 100 µM | RPMI-8226 > 100 µM | SF-268 > 100 µM | KM12 93.8 µM | SK-MEL-2 > 100 µM | NCI-H226 > 100 µM | SN12C > 100 µM | HOP-62 > 100 µM | NCI-H460 > 100 µM | UO-31 > 100 µM | MCF7 > 100 µM | HT-29 > 100 µM | SNB-19 > 100 µM

CCOC(=O)C(NCc1cccc(C(F)(F)F)c1)(NC(=O)CC)C(F)(F)F (stereo not drawn)
inactive: K562 > 100 µM | OVCAR-5 > 100 µM | SK-OV-3 > 100 µM | NCI-H522 > 100 µM | IGROV-1 18 µM | NCI/ADR-RES > 100 µM | RPMI-8226 26 µM | SF-268 > 100 µM | KM12 > 100 µM | SK-MEL-2 > 100 µM | LOX IMVI > 100 µM | NCI-H226 > 100 µM | SN12C > 100 µM | HOP-62 > 100 µM | UO-31 51.8 µM | MCF7 > 100 µM | HT-29 > 100 µM | SNB-19 > 100 µM

CCC1(CC)C(=O)CC[C@@]2(C)C1=CC[C@H]1[C@@H]3CC[C@H](O)[C@@]3(C)CC[C@@H]12
inactive: K562 16.4 µM | A498 23.8 µM | OVCAR-5 53.3 µM | SK-OV-3 46.1 µM | NCI-H522 19.8 µM | IGROV-1 37.8 µM | NCI/ADR-RES 43.2 µM | RPMI-8226 12.1 µM | SF-268 32.5 µM | KM12 32.1 µM | SK-MEL-2 79.3 µM | LOX IMVI 19.4 µM | NCI-H226 29 µM | SN12C 16.7 µM | HOP-62 19.1 µM | NCI-H460 16.3 µM | UO-31 18.4 µM | HT-29 15 µM | SNB-19 24 µM

OC1CSCCCSCCSCCCSC1
inactive: K562 > 100 µM | A498 > 100 µM | OVCAR-5 > 100 µM | SK-OV-3 > 100 µM | NCI-H522 > 100 µM | IGROV-1 > 100 µM | RPMI-8226 37.6 µM | SF-268 > 100 µM | SK-MEL-2 > 100 µM | LOX IMVI > 100 µM | NCI-H226 > 100 µM | SN12C > 100 µM | HOP-62 > 100 µM | NCI-H460 > 100 µM | UO-31 > 100 µM | MCF7 > 100 µM | HT-29 > 100 µM | SNB-19 > 100 µM

FC(F)=C(c1ccc(-c2ccc(Cl)cc2)cc1)C(F)(F)F
inactive: K562 26.2 µM | A498 16.8 µM | OVCAR-5 17.5 µM | SK-OV-3 21 µM | NCI-H522 20.3 µM | IGROV-1 17 µM | NCI/ADR-RES 26.1 µM | RPMI-8226 23.3 µM | SF-268 23.9 µM | KM12 19.3 µM | SK-MEL-2 23.7 µM | SN12C 20.3 µM | NCI-H460 17.7 µM | UO-31 16.4 µM | HT-29 25.6 µM | SNB-19 19.3 µM

O=C(c1ccc2ccccc2c1)C1(I)S(=O)(=O)OCCOS1(=O)=O
inactive: K562 > 100 µM | OVCAR-5 > 100 µM | NCI/ADR-RES > 100 µM | RPMI-8226 > 100 µM | KM12 > 100 µM | SK-MEL-2 > 100 µM | SN12C > 100 µM | HOP-62 > 100 µM | NCI-H460 > 100 µM | UO-31 > 100 µM | MCF7 > 100 µM | HT-29 > 100 µM | SNB-19 > 100 µM

O=C1c2ccccc2-c2ccc(/N=N/c3c(O)ccc4ccccc34)cc21
inactive: K562 > 100 µM | A498 > 100 µM | OVCAR-5 > 100 µM | SK-OV-3 > 100 µM | NCI-H522 > 100 µM | IGROV-1 > 100 µM | NCI/ADR-RES > 100 µM | RPMI-8226 > 100 µM | SF-268 > 100 µM | KM12 > 100 µM | SK-MEL-2 > 100 µM | LOX IMVI > 100 µM | NCI-H226 > 100 µM | SN12C > 100 µM | HOP-62 > 100 µM | UO-31 > 100 µM | HT-29 > 100 µM | SNB-19 > 100 µM

Nc1cc2ncnn2c(SCC(=O)N/N=C/C(Br)=C\c2ccccc2)n1
inactive: K562 12.8 µM | OVCAR-5 22.1 µM | NCI-H522 10.6 µM | IGROV-1 11.5 µM | NCI/ADR-RES 25.5 µM | RPMI-8226 10.6 µM | KM12 17.9 µM | LOX IMVI 16 µM | NCI-H226 20 µM | SN12C 17.3 µM | HOP-62 33.6 µM | NCI-H460 17.3 µM | UO-31 15.5 µM | MCF7 14.7 µM | HT-29 14.8 µM | SNB-19 31 µM

COC(=O)C(=O)C(C(=O)OC)C(=O)C(=O)Nc1c(C)cccc1C (stereo not drawn)
inactive: K562 > 100 µM | A498 > 100 µM | OVCAR-5 > 100 µM | SK-OV-3 > 100 µM | NCI-H522 97.5 µM | IGROV-1 > 100 µM | RPMI-8226 > 100 µM | SF-268 > 100 µM | KM12 > 100 µM | SK-MEL-2 > 100 µM | LOX IMVI > 100 µM | NCI-H226 > 100 µM | SN12C > 100 µM | HOP-62 > 100 µM | NCI-H460 > 100 µM | UO-31 > 100 µM | HT-29 > 100 µM | SNB-19 > 100 µM

COc1ccc(OCC(=O)O)c(C(=O)CCC(=O)O)c1
inactive: K562 > 100 µM | A498 > 100 µM | OVCAR-5 > 100 µM | SK-OV-3 > 100 µM | NCI-H522 > 100 µM | IGROV-1 > 100 µM | RPMI-8226 > 100 µM | SF-268 > 100 µM | KM12 > 100 µM | SK-MEL-2 > 100 µM | LOX IMVI > 100 µM | NCI-H226 83.8 µM | SN12C > 100 µM | HOP-62 > 10 µM | NCI-H460 > 100 µM | UO-31 > 100 µM | HT-29 > 100 µM | SNB-19 > 100 µM

CCC(Oc1ccc(OC)c2ccccc(=O)c12)C(=O)O (stereo not drawn)
inactive: K562 > 100 µM | A498 > 100 µM | OVCAR-5 > 100 µM | SK-OV-3 > 100 µM | NCI-H522 > 100 µM | IGROV-1 > 100 µM | RPMI-8226 > 100 µM | SF-268 > 100 µM | KM12 > 100 µM | SK-MEL-2 > 100 µM | LOX IMVI > 100 µM | NCI-H226 > 100 µM | SN12C > 100 µM | HOP-62 > 100 µM | NCI-H460 > 100 µM | UO-31 > 100 µM | HT-29 > 100 µM | SNB-19 > 100 µM

O=c1c(-c2ccc3c(c2)OCO3)coc2c3c(ccc12)OCO3
inactive: K562 > 100 µM | A498 29 µM | OVCAR-5 56.6 µM | SK-OV-3 18.1 µM | NCI-H522 18.3 µM | IGROV-1 20.8 µM | RPMI-8226 > 100 µM | SF-268 19.1 µM | KM12 30.8 µM | SK-MEL-2 95.9 µM | LOX IMVI 45.2 µM | SN12C 41.8 µM | HOP-62 20.1 µM | NCI-H460 17.2 µM | UO-31 43.7 µM | MCF7 15.9 µM | SNB-19 21.4 µM
